# Results: PubChem BioAssay (NCI)
#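 These data come from cells grown in 96-well plates and exposed to compound for 48 hours at five concentrations. At the TGI there is no net growth.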
# Legend:
# Experiment in all cases: NCI tumour cell line growth inhibition, 48 h
# A549 NSCLC = tested on: A549 NSCLC
# IGROV1 ovarian = tested on: IGROV1 ovarian
# SW-620 colon = tested on: SW-620 colon
# NCI-H23 lung = tested on: NCI-H23 lung
# OVCAR-4 ovarian = tested on: OVCAR-4 ovarian
# HT29 colon = tested on: HT29 colon
# UACC-62 melanoma = tested on: UACC-62 melanoma
# DMS 273 small cell lung = tested on: DMS 273 small cell lung
# HL-60(TB) leukemia = tested on: HL-60(TB) leukemia
# SK-OV-3 ovarian = tested on: SK-OV-3 ovarian
# XF 498 CNS = tested on: XF 498 CNS
# HOP-18 NSCLC = tested on: HOP-18 NSCLC
# KM20L2 colon = tested on: KM20L2 colon
# RXF-631 renal = tested on: RXF-631 renal
# SF-268 CNS = tested on: SF-268 CNS
# 786-0 renal = tested on: 786-0 renal
# SNB-78 CNS = tested on: SNB-78 CNS
# MOLT-4 leukemia = tested on: MOLT-4 leukemia
# UO-31 renal = tested on: UO-31 renal
# RPMI-8226 leukemia = tested on: RPMI-8226 leukemia
# HCT-15 colon = tested on: HCT-15 colon
# NCI-H522 lung = tested on: NCI-H522 lung
# LXFL 529 NSCLC = tested on: LXFL 529 NSCLC
# HCT-116 colon = tested on: HCT-116 colon
# EKVX NSCLC = tested on: EKVX NSCLC
# DMS 114 small cell lung = tested on: DMS 114 small cell lung
# M14 melanoma = tested on: M14 melanoma
# HCC-2998 colon = tested on: HCC-2998 colon
# HOP-62 NSCLC = tested on: HOP-62 NSCLC
# LOX IMVI melanoma = tested on: LOX IMVI melanoma
# CAKI-1 renal = tested on: CAKI-1 renal
# NCI-H460 lung = tested on: NCI-H460 lung
# TK-10 renal = tested on: TK-10 renal
# SK-MEL-5 melanoma = tested on: SK-MEL-5 melanoma
# SF-539 CNS = tested on: SF-539 CNS
# ACHN renal = tested on: ACHN renal
# OVCAR-5 ovarian = tested on: OVCAR-5 ovarian
# K-562 leukemia = tested on: K-562 leukemia
# SR leukemia = tested on: SR leukemia
# U251 CNS = tested on: U251 CNS
# SK-MEL-2 melanoma = tested on: SK-MEL-2 melanoma
# SN12C renal = tested on: SN12C renal
# COLO 205 colon = tested on: COLO 205 colon
# OVCAR-3 ovarian = tested on: OVCAR-3 ovarian
# NCI-H226 lung = tested on: NCI-H226 lung
# SNB-19 CNS = tested on: SNB-19 CNS
# SK-MEL-28 melanoma = tested on: SK-MEL-28 melanoma
# SNB-75 CNS = tested on: SNB-75 CNS
# KM12 colon = tested on: KM12 colon
# DLD-1 colon = tested on: DLD-1 colon
# M19-MEL melanoma = tested on: M19-MEL melanoma
# A498 renal = tested on: A498 renal
# SN12K1 renal = tested on: SN12K1 renal
# SF-295 CNS = tested on: SF-295 CNS
# MALME-3M melanoma = tested on: MALME-3M melanoma
# OVCAR-8 ovarian = tested on: OVCAR-8 ovarian
# CCRF-CEM leukemia = tested on: CCRF-CEM leukemia
# P388/ADR leukemia = tested on: P388/ADR leukemia
# UACC-257 melanoma = tested on: UACC-257 melanoma
# MCF7 breast = tested on: MCF7 breast
# RXF 393 renal = tested on: RXF 393 renal
# P388 leukemia = tested on: P388 leukemia
# HOP-92 NSCLC = tested on: HOP-92 NSCLC
# NCI/ADR-RES ovarian = tested on: NCI/ADR-RES ovarian
smiles,measurement,setting,value
O=C(CC(=O)N1N=C(c2ccccc2)C(N=Nc2ccc(Cl)cc2)C1=O)Nc1ccccc1Cl (stereo not drawn),TGI,A549 NSCLC,> 100 µM
same,TGI,IGROV1 ovarian,> 100 µM
same,TGI,SW-620 colon,> 100 µM
same,TGI,NCI-H23 lung,97 µM
same,TGI,OVCAR-4 ovarian,37.2 µM
same,TGI,HT29 colon,> 100 µM
same,TGI,UACC-62 melanoma,53.3 µM
same,TGI,DMS 273 small cell lung,> 100 µM
same,TGI,HL-60(TB) leukemia,> 100 µM
same,TGI,SK-OV-3 ovarian,40.4 µM
same,TGI,XF 498 CNS,89.7 µM
same,TGI,HOP-18 NSCLC,67.8 µM
same,TGI,KM20L2 colon,> 100 µM
same,TGI,RXF-631 renal,> 100 µM
same,TGI,SF-268 CNS,78 µM
same,TGI,786-0 renal,26 µM
same,TGI,SNB-78 CNS,> 100 µM
same,TGI,MOLT-4 leukemia,> 100 µM
same,TGI,UO-31 renal,78 µM
same,TGI,RPMI-8226 leukemia,> 100 µM
same,TGI,HCT-15 colon,> 100 µM
same,TGI,NCI-H522 lung,> 100 µM
same,TGI,LXFL 529 NSCLC,> 100 µM
same,TGI,HCT-116 colon,> 100 µM
same,TGI,EKVX NSCLC,> 100 µM
same,TGI,DMS 114 small cell lung,> 100 µM
same,TGI,M14 melanoma,> 100 µM
same,TGI,HCC-2998 colon,> 100 µM
same,TGI,HOP-62 NSCLC,40.6 µM
same,TGI,LOX IMVI melanoma,> 100 µM
same,TGI,CAKI-1 renal,85.1 µM
same,TGI,NCI-H460 lung,> 100 µM
same,TGI,TK-10 renal,38.1 µM
same,TGI,SK-MEL-5 melanoma,51.4 µM
same,TGI,SF-539 CNS,68.2 µM
same,TGI,ACHN renal,48.8 µM
same,TGI,OVCAR-5 ovarian,> 100 µM
same,TGI,K-562 leukemia,> 100 µM
same,TGI,SR leukemia,> 100 µM
same,TGI,U251 CNS,71.1 µM
same,TGI,SK-MEL-2 melanoma,88.6 µM
same,TGI,SN12C renal,> 100 µM
same,TGI,COLO 205 colon,> 100 µM
same,TGI,OVCAR-3 ovarian,71.4 µM
same,TGI,NCI-H226 lung,62.6 µM
same,TGI,SNB-19 CNS,61 µM
same,TGI,SK-MEL-28 melanoma,52.4 µM
same,TGI,SNB-75 CNS,41.3 µM
same,TGI,KM12 colon,> 100 µM
same,TGI,DLD-1 colon,> 100 µM
same,TGI,M19-MEL melanoma,> 100 µM
CC(C)CCN=c1cc2n(-c3ccc(Cl)cc3)c3ccccc3nc-2cc1Nc1ccc(Cl)cc1,TGI,A549 NSCLC,> 56.4 µM
same,TGI,IGROV1 ovarian,17.9 µM
same,TGI,SW-620 colon,> 70.3 µM
same,TGI,NCI-H23 lung,12.1 µM
same,TGI,OVCAR-4 ovarian,18.4 µM
same,TGI,HT29 colon,19.8 µM
same,TGI,A498 renal,48.5 µM
same,TGI,SN12K1 renal,23.7 µM
same,TGI,SF-295 CNS,44.2 µM
same,TGI,MALME-3M melanoma,31 µM
same,TGI,UACC-62 melanoma,20.4 µM
same,TGI,OVCAR-8 ovarian,33.7 µM
same,TGI,DMS 273 small cell lung,56.4 µM
same,TGI,CCRF-CEM leukemia,> 91 µM
same,TGI,HL-60(TB) leukemia,11.1 µM
same,TGI,SK-OV-3 ovarian,70.2 µM
same,TGI,XF 498 CNS,20.6 µM
same,TGI,HOP-18 NSCLC,56.6 µM
same,TGI,KM20L2 colon,19.7 µM
same,TGI,SF-268 CNS,> 100 µM
same,TGI,P388/ADR leukemia,10.2 µM
same,TGI,UACC-257 melanoma,19.7 µM
same,TGI,MCF7 breast,> 42 µM
same,TGI,SNB-78 CNS,> 100 µM
same,TGI,MOLT-4 leukemia,> 51.8 µM
same,TGI,UO-31 renal,18.9 µM
same,TGI,RPMI-8226 leukemia,5.74 µM
same,TGI,RXF 393 renal,10.9 µM
same,TGI,HCT-15 colon,23.2 µM
same,TGI,NCI-H522 lung,7.06 µM
same,TGI,HCT-116 colon,11.4 µM
same,TGI,EKVX NSCLC,> 53 µM
same,TGI,DMS 114 small cell lung,7.63 µM
same,TGI,HCC-2998 colon,18.1 µM
same,TGI,HOP-62 NSCLC,26.1 µM
same,TGI,LOX IMVI melanoma,8.03 µM
same,TGI,CAKI-1 renal,> 67.6 µM
same,TGI,NCI-H460 lung,15.6 µM
same,TGI,P388 leukemia,11.7 µM
same,TGI,SK-MEL-5 melanoma,25.3 µM
same,TGI,SF-539 CNS,32.1 µM
same,TGI,HOP-92 NSCLC,16.8 µM
same,TGI,OVCAR-5 ovarian,35.3 µM
same,TGI,K-562 leukemia,26.4 µM
same,TGI,U251 CNS,26.5 µM
same,TGI,SK-MEL-2 melanoma,12.3 µM
same,TGI,SN12C renal,58.1 µM
same,TGI,COLO 205 colon,12.9 µM
same,TGI,NCI/ADR-RES ovarian,28.6 µM
same,TGI,OVCAR-3 ovarian,6.61 µM
same,TGI,NCI-H226 lung,20.7 µM
same,TGI,SNB-19 CNS,> 100 µM
same,TGI,SK-MEL-28 melanoma,> 82.8 µM
same,TGI,SNB-75 CNS,> 91.4 µM
same,TGI,KM12 colon,> 41.2 µM
same,TGI,DLD-1 colon,68.4 µM
same,TGI,M19-MEL melanoma,20.2 µM
